# From article PMC6244536, “In Vivo Stabilized SB3, an Attractive GRPR Antagonist, for Pre- and Intra-Operative Imaging for Prostate Cancer” (Molecular Imaging and Biology, 2018)
# Where two headings read alike, the source gives them in different places.
# Columns and labels:
# [1] = pre-clinical studies of PA combined with radiotracers; cited from earlier work
# Excerpt: For application in patients, NEP inhibitors that are already approved for clinical use such as Sacubitril and Racecadotril might be applied.
# human GRPR = human GRPR (Homo sapiens, UniProt P30550); assay: biochemical
# Method: (§1) All statistical evaluations were performed with GraphPad Prism software (version 5.01). The IC50 value was calculated using a log (inhibitor) vs response model. To compare in vivo stability −/+ PA, radioactivity uptake in the tumor −/+ PA and radioactivity uptake in the tumor without and with an excess of unlabeled peptide an unpaired t test was used. P values < 0.05 were considered statistically significant. Tumor to organ uptake ratios were calculated per animal and expressed as mean and standard deviation per group.
# [2] = system: PC-3 tumor xenografts (GRPR-expressing); details: 1 h p.i.; for tumor ROI signal intensity on SPECT: 25 MBq/200 pmol i.v.
# Method: For SPECT/MRI, PC-3-xenografted mice were intravenously injected with 25 MBq/200 pmol [^111In]SB3, co-injected with either 300 μg/100 μl PA in 0.5 % ethanol or 100 μl saline solution. Subsequently, imaging was performed 1, 4, and 24 h p.i. of the radiotracer, while animals were anesthetized using isoflurane/O2, body temperature was maintained using warm air flow, and respiratory rate was monitored. Whole-body SPECT images were acquired using the novel and state-of-the-art four-head multipinhole system (NanoScan SPECT/MRI, Mediso Medical Imaging) in 30 min (28 projections, 29 s/projection, and 7-cm axial field of view). Images were reconstructed using OSEM with six iterations and four subsets on a 120 × 120 matrix with 0.25 × 0.25 × 0.25-mm isotropic voxels. MR-based attenuation correction was applied to all images. T2 MR images were acquired using a spin echo sequence (TR/TE = 4500/52 ms) with a 35-mm-diameter solenoid coil. Other scan parameters were field of view 70 mm, matrix 256 × 128, and slice thickness 1 mm with 0.1-mm spacing between slices. An ROI of the tumor was drawn by an experienced technician on the T2-weighted MR image to measure the intensity in the SPECT image.
# [3] = Indium-111 labeled; cited from earlier work
# Excerpt: Preclinical as well as clinical PET imaging studies using [^68Ga]SB3 have been performed with great success. […] To increase the in vivo stability of radiopeptides, multiple solutions are available, including structural modifications of a peptide or the novel approach of inhibition of enzymes responsible for enzymatic degradation. Since structural modifications are time consuming, and ...
# [4] = system: PC-3 tumor xenografts (GRPR-expressing); assay: in vivo; details: mouse
# Method: (§2) Healthy or xenografted Balb c nu/nu male mice (Janvier) were used in this study. To obtain xenografted mice, animals were injected subcutaneously in the right shoulder with PC-3, 3 × 10^6 cells in Matrigel (total volume 150 μl, solution 66 % RPMI, 33 % Matrigel) per animal. Prior to tumor cell inoculation, the PC-3 cells were cultured in RPMI medium supplemented with 10 % fetal bovine serum, 5000 IU/ml penicillin, and 5000 μg/ml streptomycin at 37 °C in a humidified atmosphere containing 5 % CO2. PC295 is an androgen-dependent, patient-derived cell line with high GRPR expression. Xenografts were generated by subcutaneous implantation of the PC295 human prostate tumor as previously described and were stored at − 80 °C until further use. All culture supplies were purchased at Gibco.
# (§3) Tumor-bearing mice received an intravenous injection of 200 pmol/2.5 MBq [^111In]SB3, co-injected with either 300 μg/100 μl PA in 0.5 % ethanol or 100 μl saline solution (n = 4 animals per group for each time point). […] To determine specificity of tumor and organ uptake, blocking experiments were performed; an additional group of animals (n = 3) was pre-injected with an excess (20 nmol) of unlabeled SB3 followed by injection of the radiotracer −/+ PA. At three different time points p.i. (1, 4, and 24 h), animals were euthanized and blood, organs, and tumors were collected, weighed, and measured in a γ-counter (1480 WIZARD automatic γ-counter, PerkinElmer). For γ-counter measurements, an isotope specific energy window, a counting time of 60 s, and a counting error ≤ 5 % were used. Results were expressed as the percentage of the injected dose per gram tissue (% ID/g tissue). Animals that had ≥ 7 % ID in the tail were excluded.
# as §1
# in vivo = details: male, Balb c nu/nu, mouse, iv, total radioactivity
# Method: as §2, §3, §1
# [5] = healthy mice, blood 5 min p.i., radio-HPLC, mean ± SD; for intact radiotracer, % of remaining circulating activity in blood: 200 pmol/25 MBq i.v.; for intact radiotracer in blood: 2000 pmol/25 MBq i.v.
# Method: To determine the stability of [^111In]SB3 −/+ PA in vivo, healthy mice (n = 3 per group) were intravenously injected with 200 pmol/25 MBq or 2000 pmol/25 MBq [^111In]SB3 (volume 100 μl), co-injected with either 300 μg/100 μl PA (Peptides International Inc.) in 0.5 % ethanol or 100 μl saline solution. Five minutes after injection of [^111In]SB3 −/+ PA, blood (0.5–1 ml) was collected by cardiac puncture, while animals were under isoflurane/O2 anesthesia, and transferred to blood-collection tubes containing 90 USP units of lithium heparin (spray coated), HPLC grade ethanol was added in a 1:1 (v/v) ratio, and the tubes were placed on ice. Blood samples were centrifuged 5 min at 1250g, and supernatant was collected. Next, the collected supernatant was centrifuged again for 5 min at 12,500g. The secondary supernatant was collected and diluted with MilliQ down to < 25 % ethanol before injection on HPLC. The samples were analyzed by HPLC (Alliance, Waters) including a Symmetry C18 column (5 μm × 4.6 mm × 250 mm). Elution was performed in a 1-ml/min flow, completed in 30 min, with the gradient 0–5 min 100 % A, 5–5.01 min 40 % A 60 % B, 5.01–20 min 20 % A 80 % B, 20–20.01 min 100 % B, 20.01–25 min 100 % B, and 25.01–30 min 100 % A, where A was 0.1 % TFA in H2O and B was methanol.
# [6] = co-injected with 300 μg PA, n = 3
# human GRPR, sequence (P30550 whole entry): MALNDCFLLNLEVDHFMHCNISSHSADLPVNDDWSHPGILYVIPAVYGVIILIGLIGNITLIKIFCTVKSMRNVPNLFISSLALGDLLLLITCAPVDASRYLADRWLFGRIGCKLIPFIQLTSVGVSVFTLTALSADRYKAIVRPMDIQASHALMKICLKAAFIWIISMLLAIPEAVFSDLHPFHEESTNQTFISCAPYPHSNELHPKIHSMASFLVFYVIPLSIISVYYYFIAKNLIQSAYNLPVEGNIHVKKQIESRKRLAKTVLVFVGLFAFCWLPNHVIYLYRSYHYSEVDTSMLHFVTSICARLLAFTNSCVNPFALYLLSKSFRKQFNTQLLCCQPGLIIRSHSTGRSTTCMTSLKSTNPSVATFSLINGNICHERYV
structure (smiles),measurement,setting,value
"CC(C)C[C@H](NP(=O)(O)O[C@@H]1O[C@@H](C)[C@H](O)[C@@H](O)[C@H]1O)C(=O)N[C@@H](Cc1c[nH]c2ccccc12)C(=O)O [PA, phosphoramidon]",adverse events,[1],have not indicated any adverse events
"CCNC(=O)[C@H](CC(C)C)NC(=O)[C@H](Cc1c[nH]cn1)NC(=O)CNC(=O)[C@@H](NC(=O)[C@H](C)NC(=O)[C@H](Cc1c[nH]c2ccccc12)NC(=O)[C@H](CCC(N)=O)NC(=O)[C@@H](Cc1ccccc1)NC(=O)COCC(=O)Nc1ccc(CNC(=O)CN2CCN(CC(=O)O)CCN(CC(=O)O)CCN(CC(=O)O)CC2)cc1)C(C)C [SB3, Sarabesin 3]",IC50,human GRPR,3.5 nM
"CCNC(=O)[C@H](CC(C)C)NC(=O)[C@H](Cc1c[nH]cn1)NC(=O)CNC(=O)[C@@H](NC(=O)[C@H](C)NC(=O)[C@H](Cc1c[nH]c2ccccc12)NC(=O)[C@H](CCC(N)=O)NC(=O)[C@@H](Cc1ccccc1)NC(=O)COCC(=O)Nc1ccc(CNC(=O)CN2CCN(CC(=O)O)CCN(CC(=O)O)CCN(CC(=O)O)CC2)cc1)C(C)C [[^111In]SB3, metal not drawn]",tumor ROI signal intensity on SPECT,[2]; with 300 μg PA,2434 kBq/ml
same,tumor ROI signal intensity on SPECT,[2]; without PA,1424 kBq/ml
same,increase in tumor signal intensity with PA vs without PA,"[2]; ROI analysis, 25 MBq/200 pmol",70%
same,in vivo stability,[3],poor in vivo stability
same,uptake in the pancreas and the tumor with an excess of unlabeled SB3 (blocking),[4],significantly decreased
same,tissue uptake at 1 h,"in vivo; 200 pmol, pancreatic uptake",4.1 ± 2.3 %ID/g
same,tissue uptake at 1 h,"in vivo; 200 pmol, renal uptake",3.9 ± 1.4 %ID/g
same,tissue to tissue ratio at 1 h,"in vivo; 200 pmol, tumor to kidney ratio",2.8 ± 1
same,tissue to tissue ratio at 1 h,"in vivo; 200 pmol, tumor to pancreas radioactivity ratio",3.4 ± 2.5
same,tissue uptake at 1 h,"in vivo; 200 pmol, tumor uptake",10.2 ± 1.5 %ID/g
same,tissue uptake at 4 h,"in vivo; 200 pmol, tumor uptake",8.3 ± 1.1 %ID/g
same,tissue uptake at 24 h,"in vivo; 200 pmol, tumor uptake",3.1 ± 1.9 %ID/g
same,tissue uptake at 1 h,in vivo; pancreatic uptake,10.1 ± 4.3 %ID/g
same,tissue uptake at 1 h,in vivo; renal uptake,4.5 ± 1.4 %ID/g
same,tissue to tissue ratio at 1 h,in vivo; tumor to kidney ratio,4.8 ± 2.2
same,tissue to tissue ratio at 1 h,in vivo; tumor to pancreas radioactivity ratio,2.2 ± 0.8
same,tissue uptake at 1 h,in vivo; tumor uptake,19.7 ± 3.5 %ID/g
same,tissue uptake at 4 h,in vivo; tumor uptake,17.6 ± 5.1 %ID/g
same,tissue uptake at 24 h,in vivo; tumor uptake,6.5 ± 3.3 %ID/g
same,"intact radiotracer, % of remaining circulating activity in blood",[5]; [6],86.7 ± 1.5%
same,"intact radiotracer, % of remaining circulating activity in blood","[5]; without PA, n = 3",37.3 ± 2.5%
same,intact radiotracer in blood,[5]; [6],87.9 ± 1.1%
same,intact radiotracer in blood,"[5]; without PA, one animal excluded",42.0 ± 0.2%
